Results taken from patent publication US8940742B2, “Heterocyclic compounds and uses thereof” (Infinity Pharmaceuticals, Inc., priority 2012, dated 2015).

Experiments:
Raw264.7 p110 γ = biological target: T1, Raw264.7 p110 γ (Mus musculus, UniProt Q9JHG7); assay: Raw264.7 p110 γ cellular assay (phospho-AKT); type: cell-based; conditions: serum-starved RAW264.7 cells stimulated with C5a
T1 construct: reduction of phospho-AKT in stimulated RAW 264.7 cells; endogenous in cells; host or cells: RAW264.7 macrophages
Text: (b) PI3K-γ Selective Assay
Briefly, serum-starved PAW264.7 cells are stimulated with a known GPCR agonist C5a. […] Cells can be treated with test compounds prior to, simultaneously with, or subsequent to the stimulation by C5a. RAW 264.7 cells respond to the complement component fragment C5a through activation of the C5a receptor, and the C5a receptor activates macrophages and induces cell migration.

RAJI p110 δ = RAJI p110 δ (Homo sapiens, UniProt O00329); assay: RAJI p110 δ cellular assay (phospho-AKT);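 note: potency based on lowered phosphorylated AKT in RAJI cells, as a readout of PI3K-δ dependent B-cell receptor signaling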
RAJI p110 δ, sequence (O00329 whole entry): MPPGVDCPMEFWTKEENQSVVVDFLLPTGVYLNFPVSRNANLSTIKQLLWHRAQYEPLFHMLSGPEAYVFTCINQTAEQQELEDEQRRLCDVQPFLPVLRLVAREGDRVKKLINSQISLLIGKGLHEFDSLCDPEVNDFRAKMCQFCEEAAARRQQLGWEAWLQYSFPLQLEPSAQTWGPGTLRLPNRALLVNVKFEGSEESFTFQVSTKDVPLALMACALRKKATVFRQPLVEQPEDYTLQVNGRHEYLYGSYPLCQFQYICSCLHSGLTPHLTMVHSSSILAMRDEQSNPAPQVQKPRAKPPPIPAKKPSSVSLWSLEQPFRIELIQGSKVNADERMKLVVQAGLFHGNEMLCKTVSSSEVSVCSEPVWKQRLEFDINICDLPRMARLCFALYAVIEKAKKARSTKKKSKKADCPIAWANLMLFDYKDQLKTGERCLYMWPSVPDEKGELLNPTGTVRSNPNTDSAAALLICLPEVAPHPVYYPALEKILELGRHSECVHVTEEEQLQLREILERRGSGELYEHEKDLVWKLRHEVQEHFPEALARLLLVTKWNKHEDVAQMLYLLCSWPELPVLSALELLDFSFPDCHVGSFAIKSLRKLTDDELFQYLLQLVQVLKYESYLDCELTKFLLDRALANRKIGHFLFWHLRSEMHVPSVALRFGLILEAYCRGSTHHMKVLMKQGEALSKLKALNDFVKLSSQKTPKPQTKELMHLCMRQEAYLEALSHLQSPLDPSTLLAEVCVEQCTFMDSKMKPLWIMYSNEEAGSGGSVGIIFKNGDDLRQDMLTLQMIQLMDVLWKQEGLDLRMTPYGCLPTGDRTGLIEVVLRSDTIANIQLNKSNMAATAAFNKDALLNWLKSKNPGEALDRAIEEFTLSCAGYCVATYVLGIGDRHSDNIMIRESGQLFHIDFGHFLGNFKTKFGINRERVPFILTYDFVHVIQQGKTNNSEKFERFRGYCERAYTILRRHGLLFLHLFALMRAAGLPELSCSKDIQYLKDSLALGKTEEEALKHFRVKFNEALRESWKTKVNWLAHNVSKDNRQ
RAJI p110 δ, sequence (P27986 whole entry partner): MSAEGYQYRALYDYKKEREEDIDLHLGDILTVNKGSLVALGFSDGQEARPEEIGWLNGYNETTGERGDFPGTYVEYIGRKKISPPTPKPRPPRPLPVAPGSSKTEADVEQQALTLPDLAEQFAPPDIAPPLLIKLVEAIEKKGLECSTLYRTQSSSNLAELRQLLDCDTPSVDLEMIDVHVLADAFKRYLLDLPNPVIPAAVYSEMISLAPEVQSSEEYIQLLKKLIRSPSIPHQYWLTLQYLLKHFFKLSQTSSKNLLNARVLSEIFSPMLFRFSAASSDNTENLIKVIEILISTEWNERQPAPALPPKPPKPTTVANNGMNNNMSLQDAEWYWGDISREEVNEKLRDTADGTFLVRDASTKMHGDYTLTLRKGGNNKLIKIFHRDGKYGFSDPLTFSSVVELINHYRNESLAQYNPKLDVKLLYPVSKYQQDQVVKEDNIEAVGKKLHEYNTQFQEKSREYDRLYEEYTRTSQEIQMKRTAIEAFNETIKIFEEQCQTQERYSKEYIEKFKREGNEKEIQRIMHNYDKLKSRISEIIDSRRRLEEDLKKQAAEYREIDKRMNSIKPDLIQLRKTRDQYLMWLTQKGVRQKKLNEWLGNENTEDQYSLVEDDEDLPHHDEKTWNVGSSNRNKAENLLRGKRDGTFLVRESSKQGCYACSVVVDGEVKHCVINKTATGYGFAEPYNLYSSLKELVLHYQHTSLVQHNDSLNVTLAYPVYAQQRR
Text: (a) PI3K-δ Selective Assay
Reduction of phospho-AKT is indicative of compounds that may inhibit B-cell proliferation and function in certain diseases.

PI3K δ = biological target: T2, PI3K δ (Homo sapiens, UniProt O00329); assay: PI3-Kinase Promega ADP-Glo Max assay; type: biochemical; conditions: 20 nM kinase, 3 mM ATP, 500 uM diC8-PtdInsP
T2 construct: purchased Millipore
T2 sequence (O00329 whole entry): as the sequence (O00329 whole entry) above
T2 sequence (P27986 whole entry partner): as the sequence (P27986 whole entry partner) above
How it was run: (§1)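 Human class I PI3K (20 nM α or δ, 40 nM β) pre-incubated 15 min with compound in HEPES pH 7.4 buffer with MgCl2, then reacted 2 h at room temperature with 3 mM ATP and 500 uM diC8-PtdInsP. ADP measured by ADP-Glo Max luminescence; % inhibition fitted to 4-parameter logistic for IC50.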

PI3K β = biological target: T3, PI3K β (Homo sapiens, UniProt P42338); assay: PI3-Kinase Promega ADP-Glo Max assay; type: biochemical; conditions: 40 nM kinase, 3 mM ATP, 500 uM diC8-PtdInsP
T3 construct: purchased Millipore
T3 sequence (P42338 whole entry): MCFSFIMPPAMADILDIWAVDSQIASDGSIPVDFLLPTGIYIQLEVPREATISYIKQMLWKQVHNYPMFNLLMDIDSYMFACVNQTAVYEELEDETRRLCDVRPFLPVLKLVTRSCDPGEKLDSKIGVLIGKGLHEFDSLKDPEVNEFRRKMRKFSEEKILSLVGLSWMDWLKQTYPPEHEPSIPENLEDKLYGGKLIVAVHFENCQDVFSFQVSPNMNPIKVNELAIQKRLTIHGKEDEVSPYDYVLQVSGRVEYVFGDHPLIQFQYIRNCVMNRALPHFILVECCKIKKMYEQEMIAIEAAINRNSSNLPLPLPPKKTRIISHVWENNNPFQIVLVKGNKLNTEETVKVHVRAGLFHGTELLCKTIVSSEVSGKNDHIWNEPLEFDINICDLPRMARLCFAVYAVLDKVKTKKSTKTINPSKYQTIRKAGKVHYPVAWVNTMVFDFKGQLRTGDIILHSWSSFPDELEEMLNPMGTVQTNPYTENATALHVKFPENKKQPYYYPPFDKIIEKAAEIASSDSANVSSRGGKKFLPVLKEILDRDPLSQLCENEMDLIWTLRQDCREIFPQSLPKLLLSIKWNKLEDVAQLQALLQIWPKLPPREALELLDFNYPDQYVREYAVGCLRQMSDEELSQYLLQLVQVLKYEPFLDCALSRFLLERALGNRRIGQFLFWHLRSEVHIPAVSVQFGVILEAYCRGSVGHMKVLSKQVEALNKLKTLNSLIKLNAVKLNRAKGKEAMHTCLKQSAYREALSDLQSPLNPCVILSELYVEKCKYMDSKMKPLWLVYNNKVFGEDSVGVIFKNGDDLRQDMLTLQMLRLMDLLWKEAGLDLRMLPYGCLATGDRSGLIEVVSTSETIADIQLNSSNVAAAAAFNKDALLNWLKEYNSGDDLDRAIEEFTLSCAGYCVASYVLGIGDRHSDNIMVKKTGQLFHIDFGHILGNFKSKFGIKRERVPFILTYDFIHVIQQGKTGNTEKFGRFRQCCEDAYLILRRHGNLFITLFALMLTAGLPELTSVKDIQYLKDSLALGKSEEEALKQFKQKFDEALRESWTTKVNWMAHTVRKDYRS
T3 sequence (P27986 whole entry partner): as the sequence (P27986 whole entry partner) above
How it was run: as §1

PI3K α = biological target: T4, PI3K α (Homo sapiens, UniProt P42336); assay: PI3-Kinase Promega ADP-Glo Max assay; type: biochemical; conditions: 20 nM kinase, 3 mM ATP, 500 uM diC8-PtdInsP
T4 construct: purchased Millipore
T4 sequence (P42336 whole entry): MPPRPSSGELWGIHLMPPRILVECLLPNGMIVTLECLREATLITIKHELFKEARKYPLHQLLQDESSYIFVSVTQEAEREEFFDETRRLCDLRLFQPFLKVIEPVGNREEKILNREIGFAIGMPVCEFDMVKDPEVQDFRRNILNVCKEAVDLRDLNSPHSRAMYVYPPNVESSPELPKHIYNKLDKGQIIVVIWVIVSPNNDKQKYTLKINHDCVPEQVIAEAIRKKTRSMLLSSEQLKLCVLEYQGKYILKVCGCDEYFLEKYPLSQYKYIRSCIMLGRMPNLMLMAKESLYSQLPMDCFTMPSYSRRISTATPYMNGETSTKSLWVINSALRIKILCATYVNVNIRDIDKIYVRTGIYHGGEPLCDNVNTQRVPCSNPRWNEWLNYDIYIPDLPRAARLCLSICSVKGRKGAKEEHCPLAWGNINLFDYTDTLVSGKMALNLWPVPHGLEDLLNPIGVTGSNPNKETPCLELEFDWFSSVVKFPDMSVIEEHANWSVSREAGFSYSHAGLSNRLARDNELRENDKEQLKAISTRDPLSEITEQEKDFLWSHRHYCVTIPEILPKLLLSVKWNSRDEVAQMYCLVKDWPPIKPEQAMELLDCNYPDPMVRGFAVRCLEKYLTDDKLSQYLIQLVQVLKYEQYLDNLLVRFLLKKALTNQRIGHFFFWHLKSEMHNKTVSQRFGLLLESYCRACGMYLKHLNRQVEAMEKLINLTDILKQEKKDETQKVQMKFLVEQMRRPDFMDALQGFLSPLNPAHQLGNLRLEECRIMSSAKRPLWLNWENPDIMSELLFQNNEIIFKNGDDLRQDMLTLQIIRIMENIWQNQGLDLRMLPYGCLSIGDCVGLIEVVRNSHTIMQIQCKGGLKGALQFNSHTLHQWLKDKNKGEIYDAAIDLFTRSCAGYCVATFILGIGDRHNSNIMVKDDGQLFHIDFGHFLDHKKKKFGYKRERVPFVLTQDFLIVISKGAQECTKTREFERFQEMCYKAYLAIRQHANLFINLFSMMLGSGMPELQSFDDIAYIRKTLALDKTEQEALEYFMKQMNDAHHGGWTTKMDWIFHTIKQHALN
T4 sequence (P27986 whole entry partner): as the sequence (P27986 whole entry partner) above
How it was run: as §1

PI3K γ = biological target: T5, PI3K γ (Homo sapiens, UniProt P48736); assay: PI3-Kinase Promega ADP-Glo Max assay; type: biochemical; conditions: 40 nM kinase, 3 mM ATP, 500 uM diC8-PtdInsP
T5 construct: purchased Millipore
How it was run: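 Human class I PI3K reactions ran 2 hours at room temperature, followed by stop solution (40 min) and detection mix (1 hour) before luminescence reading.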

IC50 (Raw264.7 p110 γ) [nM] | IC50 (RAJI p110 δ) [nM] | IC50 (PI3K δ) [nM] | IC50 (PI3K β) [nM] | IC50 (PI3K α) [nM] | IC50 (PI3K γ) [nM] | SMILES
< 100 | 100 to 1000 | > 10000 | 1000 to 10000 | 1000 to 10000 | 100 to 1000 | C[C@H](NC(=O)c1nc(-c2cscn2)cnc1N)c1cc2cccc(Cl)c2c(=O)n1-c1ccccc1 [Compound 112]
< 100 | < 100 | 100 to 1000 | < 100 | 100 to 1000 | < 100 | C[C@H](NC(=O)c1nc(-c2cccc(S(=O)(=O)NC3CC3)c2)cnc1N)c1cc2cccc(Cl)c2c(=O)n1C [Compound 194]
< 100 | < 100 | 100 to 1000 | > 10000 | > 10000 | < 100 | C[C@H](NC(=O)c1c(N)nn2cccnc12)c1cc2cccc(-c3ccc(=O)n(C)c3)c2c(=O)n1-c1ccccc1 [Compound 121]
100 to 1000 | 100 to 1000 | 1000 to 10000 | > 10000 | > 10000 | 1000 to 10000 | CC(C)Oc1ccc(-c2cnc(N)c(C(=O)N[C@@H](C)c3cc4cccc(Cl)c4c(=O)n3-c3ccccc3)n2)cn1 [Compound 98]
< 100 | 100 to 1000 | 1000 to 10000 | 1000 to 10000 | > 10000 | 1000 to 10000 | C[C@H](NC(=O)c1c(N)nn2cccnc12)c1cc2cccc(C=O)c2c(=O)n1-c1ccccc1 [Compound 201]
< 100 | 100 to 1000 | 1000 to 10000 | 1000 to 10000 | 1000 to 10000 | 100 to 1000 | C[C@H](NC(=O)c1c(N)nn2cccnc12)c1cc2cccc(-c3cccs3)c2c(=O)n1-c1ccccc1 [Compound 271]
< 100 | < 100 | 100 to 1000 | 1000 to 10000 | > 10000 | 1000 to 10000 | C[C@H](NC(=O)c1cncc2cccnc12)c1cc2cccc(Cl)c2c(=O)n1-c1ccccc1 [Compound 45]
100 to 1000 | 100 to 1000 | > 10000 | > 10000 | > 10000 | 1000 to 10000 | C[C@H](NC(=O)c1c(N)nn2cccnc12)c1cc2cccc(NCC(F)(F)F)c2c(=O)n1-c1ccccc1 [Compound 267]
< 100 | < 100 | 100 to 1000 | 100 to 1000 | 100 to 1000 | < 100 | C[C@H](NC(=O)c1c(N)nn2cccnc12)c1cc2cccc(Cl)c2c(=O)n1CCN(C)S(C)(=O)=O [Compound 273]
< 100 | < 100 | 1000 to 10000 | > 10000 | > 10000 | 100 to 1000 | C[C@H](NC(=O)c1c(N)ncc2cccnc12)c1cc2cccc(N3CCOCC3)c2c(=O)n1-c1ccccc1 [Compound 214]
100 to 1000 | 1000 to 10000 | > 10000 | > 10000 | > 10000 | 1000 to 10000 | C[C@H](NC(=O)c1c(N)nn2cccnc12)c1cc2cccc(N3CCOCC3)c2c(=O)n1-c1ccccc1 [Compound 184]
1000 to 10000 | 100 to 1000 | > 10000 | > 10000 | > 10000 | 1000 to 10000 | C[C@H](NC(=O)c1nc(-c2ccccc2)cnc1N)c1cc2cccc(Cl)c2c(=O)n1-c1ccccc1 [Compound 42]
< 100 | < 100 | 100 to 1000 | > 10000 | 1000 to 10000 | 100 to 1000 | C[C@H](NC(=O)c1c(N)nn2cccnc12)c1cc2cccc(-c3cccnc3)c2c(=O)n1-c1ccccc1 [Compound 118]
100 to 1000 | 1000 to 10000 | > 10000 | 1000 to 10000 | > 10000 | 1000 to 10000 | C[C@H](NC(=O)c1nc(-c2csc(S(C)(=O)=O)n2)cnc1N)c1cc2cccc(Cl)c2c(=O)n1-c1ccccc1 [Compound 113]
< 100 | < 100 | 1000 to 10000 | 1000 to 10000 | 1000 to 10000 | 100 to 1000 | C[C@H](NC(=O)c1nc(-c2cccc(S(=O)(=O)NC(C)(C)C)c2)cnc1N)c1cc2cccc(Cl)c2c(=O)n1-c1ccccc1 [Compound 86]
1000 to 10000 | < 100 | < 100 | > 10000 | > 10000 | 1000 to 10000 | C[C@H](NC(=O)c1nccnc1N)c1cc2cccc(-c3cccnc3)c2c(=O)n1-c1ccccc1 [Compound 55]
< 100 | 100 to 1000 | 1000 to 10000 | 1000 to 10000 | 1000 to 10000 | 1000 to 10000 | COc1cc(-c2cccc3cc([C@H](C)NC(=O)c4c(N)nn5cccnc45)n(C4CC4)c(=O)c23)ccn1 [Compound 150]

IC50 (Raw264.7 p110 γ) [nM] | IC50 (RAJI p110 δ) [nM] | IC50 (PI3K δ) [nM] | IC50 (PI3K β) [nM] | IC50 (PI3K α) [nM] | IC50 (PI3K γ) [nM] | SMILES
< 100 | 100 to 1000 | 1000 to 10000 | 1000 to 10000 | 1000 to 10000 | < 100 | C[C@H](NC(=O)c1c(N)nn2cccnc12)c1cc2cccc(Cl)c2c(=O)n1-c1ccc(F)c(F)c1 [Compound 75]
< 100 | 100 to 1000 | 1000 to 10000 | > 10000 | 1000 to 10000 | 100 to 1000 | COc1cc(-c2cccc3cc([C@H](C)NC(=O)c4c(N)nn5cccnc45)n(-c4cccc(F)c4)c(=O)c23)ccn1 [Compound 189]
< 100 | < 100 | 100 to 1000 | < 100 | 100 to 1000 | 100 to 1000 | C[C@H](NC(=O)c1c(N)nn2cccnc12)c1cc2cccc(Cl)c2c(=O)n1C1CC1 [Compound 77]
< 100 | < 100 | 1000 to 10000 | 100 to 1000 | 1000 to 10000 | 100 to 1000 | CC(C)n1c([C@H](C)NC(=O)c2c(N)nn3cccnc23)cc2cccc(Cl)c2c1=O [Compound 73]
< 100 | < 100 | 100 to 1000 | > 10000 | 1000 to 10000 | < 100 | COc1cncc(-c2cccc3cc([C@H](C)NC(=O)c4c(N)nn5cccnc45)n(-c4ccccc4)c(=O)c23)c1 [Compound 119]
< 100 | < 100 | 100 to 1000 | 100 to 1000 | 1000 to 10000 | 100 to 1000 | C[C@H](NC(=O)c1c(N)nn2cccnc12)c1c(C#N)c2cccc(F)c2c(=O)n1-c1ccccc1 [Compound 269]
< 100 | < 100 | 1000 to 10000 | 1000 to 10000 | 1000 to 10000 | 100 to 1000 | Cc1cccc2cc([C@H](C)NC(=O)c3c(N)nn4cccnc34)n(-c3ccccc3)c(=O)c12 [Compound 123]
< 100 | 100 to 1000 | > 10000 | > 10000 | > 10000 | 1000 to 10000 | COc1cc(-c2cccc3cc(C(C)NC(=O)c4c(N)nn5cccnc45)c(-c4ccccc4)nc23)ccn1 (stereo not drawn) [Compound 219]
< 100 | < 100 | 100 to 1000 | < 100 | 1000 to 10000 | 100 to 1000 | C[C@H](NC(=O)c1c(N)nn2cccnc12)c1cc2cccc(Cl)c2c(=O)n1C [Compound 74]
< 100 | < 100 | 1000 to 10000 | 1000 to 10000 | 100 to 1000 | < 100 | C[C@H](NC(=O)c1c(N)nn2cccnc12)c1cc2cccc(C#CCNC(=O)C3CCC(=O)C3)c2c(=O)n1-c1ccccc1 (stereo partly drawn) [Compound 162]
100 to 1000 | 100 to 1000 | 1000 to 10000 | 1000 to 10000 | 1000 to 10000 | 100 to 1000 | C[C@H](NC(=O)c1cnn2cccnc12)c1cc2cccc(Cl)c2c(=O)n1-c1ccc(F)cc1 [Compound 62]
< 100 | 100 to 1000 | > 10000 | > 10000 | 1000 to 10000 | 1000 to 10000 | CNc1cccc2cc([C@H](C)NC(=O)c3c(N)nn4cccnc34)n(-c3ccccc3)c(=O)c12 [Compound 266]
100 to 1000 | 1000 to 10000 | > 10000 | > 10000 | > 10000 | 1000 to 10000 | C[C@H](NC(=O)c1c(N)nn2cccnc12)c1cc2scc(-c3cnn(C)c3)c2c(=O)n1-c1ccccc1 [Compound 209]
< 100 | < 100 | 1000 to 10000 | 1000 to 10000 | 1000 to 10000 | < 100 | CC(=O)NCC#Cc1cccc2cc([C@H](C)NC(=O)c3c(N)nn4cccnc34)n(-c3ccccc3)c(=O)c12 [Compound 165]
< 100 | < 100 | 100 to 1000 | < 100 | 100 to 1000 | < 100 | C[C@H](NC(=O)c1nc(-c2cccc(NS(C)(=O)=O)c2)cnc1N)c1cc2cccc(Cl)c2c(=O)n1C [Compound 183]
< 100 | < 100 | 100 to 1000 | 100 to 1000 | 1000 to 10000 | 100 to 1000 | C[C@H](NC(=O)c1c(N)ncc2cccnc12)c1cc2cccc(Cl)c2c(=O)n1-c1ccccc1 [Compound 137]
